In US20240067631A1, “PYRAZOLE DERIVATIVES USEFUL AS NAMPT MODULATORS” (Cytokinetics, Inc., priority 2020, published 2024):

Molecular target: human NAMPT (Homo sapiens (Human), UniProt P43490)
Test: Human recombinant enzyme assay (NMN fluorescence biochemical assay)
Details: 6 nM human NAMPT, 60 min; for AC1.4 Human: concentration of compound that generates 40% higher activity over basal; for EC50: concentration that gives half-maximal activation
Protocol: Compounds described herein were assayed for their ability to stimulate the synthesis of nicotinamide mononucleotide (NMN) by the enzyme NAMPT. The human recombinant enzyme assay measures the activation of the enzyme activity by compounds using recombinant enzyme and substrates in a buffered cell-free system. The assay conditions closely mimic cellular environments. Dose responses were measured using an assay to detect the formation of nicotinamide mono-nucleotide. All experiments were performed in the 384-well format. Generally, 0.5 μL of DMSO containing varying concentrations of the test compound was mixed with 10 μL of the enzyme reagent solution. Enzyme reactions were initiated with the addition of 10 μL of a solution containing the substrates. The final assay conditions were as follows: 6 nM human NAMPT, 2.5 mM ATP, […] in 50 mM HEPES, pH 7.2, 1 mM DTT, 1 mM CHAPS 50 mM NaCl, 100 mM MgCl2. Following an incubation of 60 min at ambient temperature, 10 μL of 20% acetophenone in DMSO was added, followed by 10 μL of 2 M KOH and 40 μL of formic acid. The plates were read for fluorescence (Excitation/Emission=355 nm/460 nm) using an EnVision plate reader after 40 mins of incubation at ambient temperature. The potency measurements for compounds, are quantified and represented as AC1.4 (the concentration of compounds that generates 40% higher activity over basal) and EC50 (concentration of the compound that gives half-maximal activation).

Chain of human NAMPT (P43490 whole entry): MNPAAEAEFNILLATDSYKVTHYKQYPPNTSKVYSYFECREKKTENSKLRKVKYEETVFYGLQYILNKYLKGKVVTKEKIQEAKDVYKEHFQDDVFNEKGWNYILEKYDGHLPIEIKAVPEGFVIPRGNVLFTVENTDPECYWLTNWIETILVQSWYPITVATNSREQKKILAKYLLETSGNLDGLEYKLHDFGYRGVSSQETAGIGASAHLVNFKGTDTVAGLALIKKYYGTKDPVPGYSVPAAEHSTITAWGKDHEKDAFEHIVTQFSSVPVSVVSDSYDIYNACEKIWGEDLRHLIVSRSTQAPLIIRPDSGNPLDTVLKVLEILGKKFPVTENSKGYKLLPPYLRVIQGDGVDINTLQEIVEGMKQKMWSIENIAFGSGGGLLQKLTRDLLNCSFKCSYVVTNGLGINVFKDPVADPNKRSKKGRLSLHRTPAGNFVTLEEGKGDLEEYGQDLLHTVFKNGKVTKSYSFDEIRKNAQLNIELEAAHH

| SMILES | AC1.4 Human [µM] | EC50 [nM] |
| --- | --- | --- |
| Cc1nc(C(=O)N2CCC(c3c[nH]c4ccccc34)CC2)nc(NCCc2cn[nH]c2)c1C [Compound 6, (4-(1H-indol-3-yl)piperidin-1-yl)(4-((2-(1H-pyrazol-4-yl)ethyl)amino)-5,6-dimethylpyrimidin-2-yl)methanone] | 0.0385 | 1840 |
| Cc1nc(C(=O)N2CCC(F)(F)CC2c2ccccc2)nc(NCCc2cn[nH]c2)c1C (stereo not shown) [Compound 28, (4-((2-(1H-pyrazol-4-yl)ethyl)amino)-5,6-dimethylpyrimidin-2-yl)(4,4-difluoro-2-phenylpiperidin-1-yl)methanone] | 0.144 | 1360 |
| Cc1nc(C(=O)N(C)[C@@H](C)c2ccccc2Cl)nc(NCCc2cn[nH]c2)c1C [Compound 29, (S)-4-((2-(1H-pyrazol-4-yl)ethyl)amino)-N-(1-(2-chlorophenyl)ethyl)-N,5,6-trimethylpyrimidine-2-carboxamide] | 0.1725 | 1870 |
| Cc1nc(C(=O)NCc2ccccc2)nc(NCCc2cn[nH]c2)c1C [Compound 31, 4-((2-(1H-pyrazol-4-yl)ethyl)amino)-N-benzyl-5,6-dimethylpyrimidine-2-carboxamide] | 0.192 | 1610 |
| Cc1nc(C(=O)NC(c2ccccc2)C(F)(F)F)nc(NCCc2cn[nH]c2)c1C (stereo not shown) [Compound 33, 4-((2-(1H-pyrazol-4-yl)ethyl)amino)-5,6-dimethyl-N-(2,2,2-trifluoro-1-phenylethyl)pyrimidine-2-carboxamide] | 0.2615 | 1380 |
| Cc1nc(C(=O)N2CCC(O)(c3ccccc3)CC2)nc(NCCc2cn[nH]c2)c1C [Compound 34, (4-((2-(1H-pyrazol-4-yl)ethyl)amino)-5,6-dimethylpyrimidin-2-yl)(4-hydroxy-4-phenylpiperidin-1-yl)methanone] | 2.839 | 17700 |
| Cc1nc(C(=O)N2CCC[C@@H]2c2ccccc2)nc(NCCc2cn[nH]c2)c1C [Compound 38, (R)-(4-((2-(1H-pyrazol-4-yl)ethyl)amino)-5,6-dimethylpyrimidin-2-yl)(2-phenylpyrrolidin-1-yl)methanone] | 0.1635 | 3830 |
| Cc1nc(C(=O)N[C@H](C)c2cccc(F)c2)nc(NCCc2cn[nH]c2)c1C [Compound 39, (R)-4-((2-(1H-pyrazol-4-yl)ethyl)amino)-N-(1-(3-fluorophenyl)ethyl)-5,6-dimethylpyrimidine-2-carboxamide] | 0.21 | 1510 |
| Cc1nc(C(=O)NC(C)(C)Cc2cccc(F)c2)nc(NCCc2cn[nH]c2)c1C [Compound 41, 4-((2-(1H-pyrazol-4-yl)ethyl)amino)-N-(1-(3-fluorophenyl)-2-methylpropan-2-yl)-5,6-dimethylpyrimidine-2-carboxamide] | 0.2615 | 2870 |
| Cc1nc(C(=O)N2C[C@H](c3ccccc3)[C@@H](O)C2)nc(NCCc2cn[nH]c2)c1C [Compound 42, (4-((2-(1H-pyraazol-4-yl)ethyl)amino)-5,6-dimethylpyrimidin-2-yl)((3R,4S)-3-hydroxy-4-phenylpyrrolidin-1-yl)methanone] | 0.265 | 2920 |
| Cc1nc(C(=O)N2CCN(C)CC2c2ccccc2)nc(NCCc2cn[nH]c2)c1C (stereo not shown) [Compound 44, (4-((2-(1H-pyrazol-4-yl)ethyl)amino)-5,6-dimethylpyrimidin-2-yl)(4-methyl-2-phenylpiperazin-1-yl)methanone] | 0.275 | 1840 |
| Cc1nc(C(=O)NC(c2cccc(F)c2)c2ccccn2)nc(NCCc2cn[nH]c2)c1C (stereo not shown) [Compound 46, 4-((2-(1H-pyrazol-4-yl)ethyl)amino)-N-((3-fluorophenyl)(pyridin-2-yl)methyl)-5,6-dimethylpyrimidine-2-carboxamide] | 0.2845 | 2350 |
| Cc1nc(C(=O)N[C@H](C)c2ccccn2)nc(NCCc2cn[nH]c2)c1C [Compound 47, (R)-4-((2-(1H-pyrazol-4-yl)ethyl)amino)-5,6-dimethyl-N-(1-(pyridin-2-yl)ethyl)pyrimidine-2-carboxamide] | 0.2915 | 2000 |

Stronger by EC50, values ahead:

| AC1.4 Human [µM] | EC50 [nM] | SMILES |
| --- | --- | --- |
| 0.044 | 633 | Cc1nc(C(=O)N2CC(O)(c3ccccc3)C2)nc(N2CC[C@@H](c3cn[nH]c3)C2)c1C (single isomer, unassigned) [Compound 9] |
| 0.003 | 131 | Cc1nc(C(N)=O)nc(N(CCc2ccccc2)CCc2cn[nH]c2)c1C [Compound 1, 4-((2-(1H-pyrazol-4-yl)ethyl)(phenethyl)amino)-5,6-dimethylpyrimidine-2-carboxamide] |
| 0.007 | 156 | CNC(=O)c1nc(C)c(C)c(N(CCc2ccccc2)CCc2cn[nH]c2)n1 [Compound 2, 4-((2-(1H-pyrazol-4-yl)ethyl)(phenethyl)amino)-N,5,6-trimethylpyrimidine-2-carboxamide] |
| 0.0165 | 653 | Cc1nc(C(=O)N2CC(O)(c3cccc(F)c3)C2)nc(NCCc2cn[nH]c2)c1C [Compound 3, (4-((2-(1H-pyrazol-4-yl)ethyl)amino)-5,6-dimethylpyrimidin-2-yl)(3-(3-fluorophenyl)-3-hydroxyazetidin-1-yl)methanone] |
| 0.0325 | 182 | Cc1nc(C(=O)N[C@@H](C)c2cccs2)nc(NCCc2cn[nH]c2)c1C [Compound 8, (S)-4-((2-(1H-pyrazol-4-yl)ethyl)amino)-5,6-dimethyl-N-(1-(thiophen-2-yl)ethyl)pyrimidine-2-carboxamide] |
| 0.0465 | 282 | Cc1nc(C(=O)NC(C)(C)c2cccc(F)c2)nc(NCCc2cn[nH]c2)c1C [Compound 11, 4-((2-(1H-pyrazol-4-yl)ethyl)amino)-N-(2-(3-fluorophenyl)propan-2-yl)-5,6-dimethylpyrimidine-2-carboxamide] |
| 0.048 | 514 | Cc1nc(C(=O)N2CCOCC2c2cccc(Cl)c2)nc(NCCc2cn[nH]c2)c1C (stereo not shown) [Compound 12, (4-((2-(1H-pyrazol-4-yl)ethyl)amino)-5,6-dimethylpyrimidin-2-yl)(3-(3-chlorophenyl)morpholino)methanone] |
| 0.0745 | 597 | Cc1nc(C(=O)N2CC(c3cccc(F)c3)C2)nc(NCCc2cn[nH]c2)c1C [Compound 18, (4-((2-(1H-pyrazol-4-yl)ethyl)amino)-5,6-dimethylpyrimidin-2-yl)(3-(3-fluorophenyl)azetidin-1-yl)methanone] |
| 0.075 | 500 | Cc1nc(C(=O)NCc2cccs2)nc(NCCc2cn[nH]c2)c1C [Compound 19, 4-((2-(1H-pyrazol-4-yl)ethyl)amino)-5,6-dimethyl-N-(thiophen-2-ylmethyl)pyrimidine-2-carboxamide] |
| 0.106 | 872 | Cc1nc(C(=O)N2CCOCC2(C)c2ccccc2)nc(NCCc2cn[nH]c2)c1C (stereo not shown) [Compound 25, (4-((2-(1H-pyrazol-4-yl)ethyl)amino)-5,6-dimethylpyrimidin-2-yl)(3-methyl-3-phenylmorpholino)methanone] |
| 0.193 | 929 | Cc1nc(C(=O)NCc2cccc(F)c2)nc(NCCc2cn[nH]c2)c1C [Compound 32, 4-((2-(1H-pyrazol-4-yl)ethyl)amino)-N-(3-fluorobenzyl)-5,6-dimethylpyrimidine-2-carboxamide] |
| 0.231 | 617 | Cc1nc(C(=O)N[C@H](C)c2ccsc2)nc(NCCc2cn[nH]c2)c1C [Compound 35] |
| 0.2015 | 882 | Cc1nc(C(=O)NC(C)c2cccc(Cl)n2)nc(NCCc2cn[nH]c2)c1C (stereo not shown) [Compound 36, 4-((2-(1H-pyrazol-4-yl)ethyl)amino)-N-(1-(6-chloropyridin-2-yl)ethyl)-5,6-dimethylpyrimidine-2-carboxamide] |
| 0.2055 | 1190 | Cc1cccnc1[C@@H](C)NC(=O)c1nc(C)c(C)c(NCCc2cn[nH]c2)n1 [Compound 37, (R)-4-((2-(1H-pyrazol-4-yl)ethyl)amino)-5,6-dimethyl-N-(1-(3-methylpyridin-2-yl)ethyl)pyrimidine-2-carboxamide] |
| 0.214 | 1270 | Cc1nc(C(=O)NC(c2ccccc2)c2nccn2C)nc(NCCc2cn[nH]c2)c1C (stereo not shown) [Compound 40, 4-((2-(1H-pyrazol-4-yl)ethyl)amino)-5,6-dimethyl-N-((1-methyl-1H-imidazol-2-yl)(phenyl)methyl)pyrimidine-2-carboxamide] |
| 0.273 | 827 | COc1cccc([C@@H](C)NC(=O)c2nc(C)c(C)c(NCCc3cn[nH]c3)n2)n1 [Compound 43, (R)-4-((2-(1H-pyrazol-4-yl)ethyl)amino)-N-(1-(6-methoxypyridin-2-yl)ethyl)-5,6-dimethylpyrimidine-2-carboxamide] |
